Test results: PMC3839997, “Identification of Glucose Transporters in Aspergillus nidulans” (PLoS ONE, 2013)

Key:
HxtC [1] = biological target: T1, HxtC (Aspergillus nidulans, UniProt C8VDD8); assay: […]glucose uptake in S. cerevisiae EBY.VW4000 expressing the transporter; assay type: cell-based; conditions: labelled compound; 30 °C; proton symport
T1 construct: gene ANIA_10891; full-length ORF from cDNA, untagged (with stop codon), expressed from pRH195 in S. cerevisiae EBY.VW4000; strain A4 given for the GFP construct

HxtC [2] = biological target: T1, HxtC; assay: competition of […]glucose uptake in S. cerevisiae EBY.VW4000 expressing the transporter; assay type: cell-based; conditions: tenfold excess of unlabelled sugar over [14C]glucose

T1 sequence (C8VDD8 entry or part of it): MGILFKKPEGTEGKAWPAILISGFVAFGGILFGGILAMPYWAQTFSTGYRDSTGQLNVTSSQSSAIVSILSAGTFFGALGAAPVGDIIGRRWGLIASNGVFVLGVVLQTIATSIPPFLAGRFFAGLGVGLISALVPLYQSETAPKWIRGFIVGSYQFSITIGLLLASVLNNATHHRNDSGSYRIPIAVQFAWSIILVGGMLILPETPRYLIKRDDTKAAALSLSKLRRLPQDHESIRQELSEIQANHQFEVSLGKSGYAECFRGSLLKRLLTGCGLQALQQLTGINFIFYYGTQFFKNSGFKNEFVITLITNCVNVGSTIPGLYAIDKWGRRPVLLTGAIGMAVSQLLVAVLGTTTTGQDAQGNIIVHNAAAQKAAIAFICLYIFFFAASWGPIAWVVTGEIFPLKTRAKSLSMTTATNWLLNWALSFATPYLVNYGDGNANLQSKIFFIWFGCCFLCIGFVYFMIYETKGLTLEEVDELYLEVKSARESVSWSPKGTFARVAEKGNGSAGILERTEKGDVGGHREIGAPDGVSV

SMILES | [14C]glucose uptake in S. cerevisiae EBY.VW4000 expressing the transporter (HxtC [1]) | % inhibition (HxtC [2])
OC[C@H]1OC(O)[C@H](O)[C@@H](O)[C@@H]1O (some centres unmarked) [glucose] | these data suggested that HxtB, HxtC, and HxtE mediated glucose transport via active proton symport | 
OC[C@H]1OC(O)[C@@H](O)[C@@H](O)[C@@H]1O (some centres unmarked) [mannose] |  | unlabeled maltose, galactose, fructose and mannose were also able to inhibit to different levels
OCC1(O)OC[C@@H](O)[C@@H](O)[C@@H]1O (some centres unmarked) [fructose] |  | unlabeled maltose, galactose, fructose and mannose were also able to inhibit to different levels
OC[C@H]1OC(O)[C@H](O)[C@@H](O)[C@H]1O (some centres unmarked) [galactose] |  | unlabeled maltose, galactose, fructose and mannose were also able to inhibit to different levels
OC[C@H]1O[C@H](O[C@H]2[C@H](O)[C@@H](O)C(O)O[C@@H]2CO)[C@H](O)[C@@H](O)[C@@H]1O (some centres unmarked) [maltose] |  | unlabeled maltose, galactose, fructose and mannose were also able to inhibit to different levels
